Data taken from ChEMBL document CHEMBL1201862, “PubChem BioAssay data set” (2004).
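Step 1: Grow cells in 96-well plates. Step 2: Expose to compound for 48 hours at 5 concentrations. Step 3: Interpolate endpoints linearly; if unreached, use highest concentration. Abbreviation: GI50, concentration required for 50% inhibition of growth.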 Active and inactive are the calls of the source. No stated cut-off is given here; in the data, active = GI50 up to about 1.1 µM and inactive = higher.

Experiments:
Experiment in all cases: NCI-60 cell line screen, 48 h
OVCAR-3 = system: OVCAR-3
DU-145 = system: DU-145
OVCAR-8 = system: OVCAR-8
SK-MEL-28 = system: SK-MEL-28
TK-10 = system: TK-10
MCF7 = system: MCF7
A498 = system: A498
PC-3 = system: PC-3
HOP-62 = system: HOP-62
NCI-H23 = system: NCI-H23
UO-31 = system: UO-31
Malme-3M = system: Malme-3M
HT-29 = system: HT-29
U-251 = system: U-251
MDA-N = system: MDA-N
MDA-MB-435 = system: MDA-MB-435
SN12C = system: SN12C
IGROV-1 = system: IGROV-1
786-0 = system: 786-0
NCI-H226 = system: NCI-H226
ACHN = system: ACHN
NCI/ADR-RES = system: NCI/ADR-RES
SW-620 = system: SW-620
SR = system: SR
HCC 2998 = system: HCC 2998
SK-MEL-2 = system: SK-MEL-2
KM12 = system: KM12
HL-60 = system: HL-60
SK-OV-3 = system: SK-OV-3
M14 = system: M14
BT-549 = system: BT-549
SF-539 = system: SF-539
SNB-19 = system: SNB-19
SF-268 = system: SF-268
EKVX = system: EKVX
NCI-H522 = system: NCI-H522
A549 = system: A549
COLO 205 = system: COLO 205
LOX IMVI = system: LOX IMVI
K562 = system: K562
MOLT-4 = system: MOLT-4
Hs-578T = system: Hs-578T
HCT-116 = system: HCT-116
UACC-62 = system: UACC-62
NCI-H460 = system: NCI-H460
CCRF-CEM = system: CCRF-CEM
CAKI-1 = system: CAKI-1
T47D = system: T47D
HOP-92 = system: HOP-92
HCT-15 = system: HCT-15
UACC-257 = system: UACC-257
SK-MEL-5 = system: SK-MEL-5
SF-295 = system: SF-295
OVCAR-5 = system: OVCAR-5
RPMI-8226 = system: RPMI-8226
OVCAR-4 = system: OVCAR-4
MDA-MB-231 = system: MDA-MB-231
SNB-75 = system: SNB-75

Measured: GI50

COc1ccc2oc(S(=O)(=O)N3CC(CCl)c4ccc(N)cc43)cc2c1 (stereo unspecified)
active: OVCAR-3 39.5 nM | DU-145 76.7 nM | OVCAR-8 152 nM | MCF7 25.3 nM | PC-3 29.9 nM | HOP-62 565 nM | NCI-H23 401 nM | Malme-3M 43 nM | U-251 42.9 nM | MDA-N 10.4 nM | MDA-MB-435 11.3 nM | SN12C 119 nM | IGROV-1 44.5 nM | 786-0 26.4 nM | NCI-H226 41.2 nM | ACHN 120 nM | NCI/ADR-RES 37.7 nM | SW-620 39.5 nM | SR < 10 nM | HCC 2998 118 nM | SK-MEL-2 < 44.3 nM | KM12 22.8 nM | HL-60 22 nM | SK-OV-3 108 nM | M14 39.3 nM | SF-539 24.4 nM | SNB-19 60.8 nM | EKVX 84 nM | NCI-H522 18.4 nM | A549 66.2 nM | LOX IMVI 47.1 nM | K562 22.5 nM | MOLT-4 65.2 nM | Hs-578T 16.1 nM | HCT-116 41.9 nM | UACC-62 24.6 nM | NCI-H460 25.5 nM | CCRF-CEM 38.5 nM | CAKI-1 36.6 nM | UACC-257 766 nM | SK-MEL-5 19 nM | SF-295 42 nM | RPMI-8226 48.2 nM | SNB-75 < 21.5 nM
inactive: SK-MEL-28 54100 nM | TK-10 46800 nM | A498 1480 nM | UO-31 1930 nM | HT-29 2250 nM | BT-549 2310 nM | SF-268 2010 nM | COLO 205 2110 nM | T47D > 100000 nM | HOP-92 8790 nM | OVCAR-5 > 19300 nM | OVCAR-4 9770 nM | MDA-MB-231 2010 nM
23 nM: HCT-15

C/C(=N\Nc1nc2ccccc2o1)c1ncccn1
active: OVCAR-3 13.6 nM | DU-145 81.1 nM | OVCAR-8 < 10 nM | SK-MEL-28 40.5 nM | TK-10 67.5 nM | MCF7 12.1 nM | A498 332 nM | PC-3 < 27.3 nM | HOP-62 90.8 nM | NCI-H23 123 nM | UO-31 < 31.3 nM | Malme-3M < 10 nM | HT-29 < 10 nM | U-251 21.3 nM | MDA-N 300 nM | MDA-MB-435 57.3 nM | SN12C < 15.8 nM | IGROV-1 18.4 nM | 786-0 < 25.2 nM | NCI-H226 118 nM | ACHN < 16.5 nM | NCI/ADR-RES < 16.3 nM | SW-620 < 10 nM | SR < 20 nM | HCC 2998 141 nM | SK-MEL-2 175 nM | KM12 817 nM | HL-60 < 10 nM | SK-OV-3 31.2 nM | M14 < 19.2 nM | BT-549 643 nM | SF-539 43 nM | SNB-19 163 nM | SF-268 320 nM | EKVX < 17.2 nM | NCI-H522 < 10 nM | A549 90.8 nM | COLO 205 < 10 nM | LOX IMVI 11.5 nM | K562 12 nM | MOLT-4 < 10 nM | Hs-578T 984 nM | HCT-116 < 17.5 nM | UACC-62 64.6 nM | NCI-H460 < 23.4 nM | CCRF-CEM < 10 nM | CAKI-1 < 10 nM | T47D < 10 nM | HOP-92 145 nM | UACC-257 < 22 nM | SK-MEL-5 57.4 nM | SF-295 82.4 nM | OVCAR-5 < 26.7 nM | RPMI-8226 13.7 nM | OVCAR-4 < 10 nM | MDA-MB-231 < 20.8 nM
< 21.1 nM: HCT-15
inactive: SNB-75 1850 nM
